Experimental data taken from patent US6849416B2, “Monoclonal antibody” (priority 2001, dated 2005).
Where a SMILES comes first, the peptide text is derived from it. [ ]: non-standard residue; d: D form. The star is where a group is joined. Nle = CCCC[C@H](N)C(=O)O; Cbz = O=C(OCc1ccccc1)*

Key:
[1] = test system: human APP751Sw transgenic H4 neuroglioma cell line (released Aβ peptides); assay: Treatment of APP751Sw transgenic H4 neuroglioma cells with protease inhibitors, Aβ peptides released into supernatant; type: cell-based; conditions: for Aβ1-40, Aβ1-42, Aβ1-37/38/39 and Aβ2-42 released into cell culture supernatant: versus DMSO control
Experimental: FIG. 27: two Aβ SDS-PAGE/immunoblots 2 which show a treatment of a human 751APPSw trangenic H4 neuroglioma cell line with various protease inhibitors (23a) and a dose-dependent effect of calpain inhibitor 1 (23b). The released Aβ peptides were quantified in 4 μl of SDS/thermally denatured cell culture supernatants in each case (cf. FIGS. 23a,b). For comparison, the sAPPα concentration in the cell culture supernatants was determined.
In panel a: (1) is DMSO control; (2) is 50 μM calpain inhibitor 1; (3) is 100 μM calpain inhibitor 3; (4) is 5 μM MG132; (5) is 25 μM calpeptin; (a-d) is mix of synthetic Aβ peptides.
The released Aβ peptides were quantified in 4 μl of SDS/thermally denatured cell culture supernatants in each case. The dose-dependent effect of calpain inhibitor 1 on the Aβ peptide concentration in the supernatant was investigated, comparing with the DMSO control.
The released Aβ peptides were quantified in 4 μl of SDS/thermally denatured cell culture supernatants in each case. The dose-dependent effect of calpain inhibitor 1 on the proportion of an Aβ peptide species as a percentage of the total Aβ peptide concentration was investigated, comparing with the DMSO control.
If the samples are in liquid form (e.g. cell culture supernatants, cell homogenates) and if the Aβ peptide concentration is sufficiently high it is possible to take up one volume unit of sample with one volume unit of the double concentrated SDS-SB-2 (table 3).
A comparative investigation was carried out on the Aβ peptide pattern in neuroglioma cells (H4) which have been transfected with humanAPP751Sw. […] Aβ2-42 can also be indentified. After treatment with inhibitors of β/γ-secretases (calpain inhibitor I&II, calpeptin, MG132, leupeptin), besides Aβ1-40 and Aβ1-42 there is also a reduction in the C-terminally truncated Aβ peptides 1-37/38/39 and the N-terminally truncated Aβ2-42 (FIGS. 28a,b).

[2] = Cryoprecipitation of synthetic peptide dissolved in water; type: physicochemical; conditions: dissolved with comparable concentration in water, freezing
Excerpt: This makes it probable that the reduction caused by cryoprecipitation in Aβ1-42 in human CSF derives predominantly from the aggregate-bound proportion of the peptide. In the case of comparatively hydrophobic aggregates—for example lipoprotein-containing complexes—a loss through cryoprecipitation would not be surprising. In this connection, it is shown hereinafter (4.2.4) that ε4-positive patients in the NDC-3CP group show a particularly high rate of CP-related reduction in Aβ1-42 and have CSF levels which are approximately as low as ε4-positive AD-3CP patients.

[3] = Aβ IPG 2D-PAGE of synthetic Aβ peptides (isoelectric point); type: physicochemical; conditions: IPG pH 4-7
Experimental: The samples are taken up in IPG-SB (table 5a). Dry substance and Dynabeads magnetically immobilized by means of MSP (see below) are taken up directly with the IPG-SB immediately before IEF and incubated in an ultrasonic bath at 37° C. for 10 min. Taking up of liquid biological samples: after removal of the mixed bed ion exchanger (Serdolit MB-1), the IPB-SB is divided into aliquots (e.g. 100 μl) in Eppendorf sample vessels and concentrated to the dry substance at room temperature using a SpeedVac. The IPG-SB introduced as dry substance is taken up with sample with the ratio 1:1 by volume (e.g. 100 μl) and, after a vortex step (1 min.), incubated in an ultrasonic bath at 37° C. for 10 min.
The IEF using commercial IPG “[…]” took place in accordance with the manufacturer's protocol (Amersham Pharmacia Biotech/brief instructions 71-5009-57, edition AA, 99-04). IPG “[…]” (4-7, linear pH gradient, length 7 cm) were rehydrogenated to a gel thickness of 0.5 mm using the rehydrogenation solution from table 5a at room temperature overnight. The sample loading device (“sample cups”) is placed on the basic side of the IPG strips, at about pH 6.5 (cathodic loading) and 30 μl of sample is loaded. The IPG-IEF takes place for 30 min/300V, 30 min/800V, 30 min./1400V and 5 h/2000V ([…]).
The IPG-IEF is followed by equilibration of the “[…]” for 2×10 min. (table 5b). The first equilibration solution contains DTT (50 mg/5 ml), the second solution iodoacetamide (240 mg/5 ml) for neutralization of excess DTT, which otherwise leads to color artefacts on silver staining of the gels. The second equilibration step is unnecessary for the Western immunoblot. The equilibrated IPG “[…]” are fixed on the stacking gel of the Aβ SDS-PAGE using agarose solution (table 5c). A sample well for loading synthetic Aβ peptides or Mr marker proteins for comparison is made in the hot agarose using a Teflon tooth. The electrophoresis takesplace in accordance with 3.1.2.

| Molecule | Aβ1-40, Aβ1-42, Aβ1-37/38/39 and Aβ2-42 released into cell culture supernatant [1] | isoelectric point [3] | other results |
| --- | --- | --- | --- |
| CC(C)C[C@@H](C=O)NC(=O)[C@H](CC(C)C)NC(=O)[C@H](CC(C)C)NC(=O)OCc1ccccc1 [MG132] (Cbz-Leu-Leu-Leu-aldehyde) | reduction |  |  |
| CCCC[C@@H](C=O)NC(=O)[C@H](CC(C)C)NC(=O)[C@H](CC(C)C)NC(C)=O [calpain inhibitor 1] (Ac-Leu-Leu-[Nle]-aldehyde) | dose-dependent reduction |  | Aβ1-42 concentration at low concentration of the protease inhibitor ([1]; low inhibitor concentration): initial (paradoxical) increase; Aβ2-42 concentration in relation to the increase in Aβ1-42 ([1]; low inhibitor concentration): did not correlate with an increase; Aβ1-40, Aβ1-42, Aβ1-37/38/39 and Aβ2-42 released into cell culture supernatant ([1]; listed as calpain inhibitor I): reduction |
| CSCC[C@@H](C=O)NC(=O)[C@H](CC(C)C)NC(=O)[C@H](CC(C)C)NC(C)=O [calpain inhibitor II] (Ac-Leu-Leu-Met-aldehyde) | reduction |  |  |
| CCCC[C@@H](C=O)NC(=O)[C@H](CC(C)C)NC(=O)OCc1ccccc1 [calpeptin] | reduction |  |  |
| CC(=O)N[C@@H](CC(C)C)C(=O)N[C@@H](CC(C)C)C(=O)N[C@H](C=O)CCCNC(=N)N [leupeptin] | reduction |  |  |
| Aβ1-42: synthetic β-amyloid peptide 1-42 (Bachem) |  | 5.37 | cryoprecipitation compared with Aβ1-42 in human CSF [2]: distinctly less cryoprecipitation |
| Aβ2-40: synthetic β-amyloid peptide 2-40, lacking N-terminal aspartate |  | 6.37 |  |
| Aβ3-40: synthetic β-amyloid peptide 3-40 |  | 6.37 |  |
